Read-outs that look alike come from different tables or passages of the source.
Experiments:
[1] = test system: cell-to-cell fusion mediated by HIV-1 (HIV-1HXB2 Env); test: microbe, parasite or virus in culture; assay type: cell-based; settings: Human immunodeficiency virus 1; MAGI-CCR5 and HL 2/3 cells, 24 h, β-gal readout
Procedure: To assess the ability of NBD-compounds to block cell-to-cell fusion mediated by HIV-1 we performed cell fusion assay as previously described 3^1-3 with some modifications. […] Following fusion of the two cell lines Tat induce the expression of β-gal enzyme. […] The percent inhibition and the IC50 values were calculated using the GraphPad Prism software.

[2] = test system: panel of HIV-1 ENV-pseudoviruses (subtype A, A/D, A2/D, A/E, A/G, B, C and D); test: microbe, parasite or virus in culture; assay type: cell-based
HIV-1 Integrase = molecular target: T1, HIV-1 Integrase (Human immunodeficiency virus type 1 group M subtype B, UniProt P04585); test: HIV-1 Integrase Assay; assay type: biochemical; settings: HIV-1 Integrase Assay Kit from ExpressBio
T1 construct: HIV-1 Integrase Assay Kit from ExpressBio; purchased ExpressBio (Thurnmont, Md.)
Procedure: HIV-1 Integrase was performed as per the protocol in the HIV-1 Integrase Assay Kit from ExpressBio (Thurnmont, Md.). (See Table 3)

[3] = test system: lab-adapted and primary HIV-1 isolates; test: microbe, parasite or virus in culture; settings: Human immunodeficiency virus 1, PBMC
Procedure: (§1) PBMCs were isolated from the blood of healthy donors at the New York Blood Center by standard density gradient centrifugation using Histopaque-1077 (Sigma-Aldrich). The cells were cultured at 37° C. for 2 hr. […] The PHA-stimulated cells (5×10^4 cells/well) were infected with lab-adapted and primary HIV-1 isolates at 500 TCID50 (0.01 MOI) in the absence or presence of inhibitors at graded concentrations. Culture media were replaced every 3 days with fresh media. The supernatants were collected 7 days post-infection and tested for p24 antigen by ELISA. The percent inhibition of p24 production and IC50 values were calculated by the GraphPad Prism software.

[4] = test system: laboratory-adapted HIV-1 strains; test: microbe, parasite or virus in culture; assay type: cell-based
PBMC = test: Cytotoxicity in PBMC (XTT); assay type: cell-based; settings: 7 days
Procedure: For the PBMC toxicity assay we used 5×10^5 cells/ml and the cytotoxicity of the compounds was measured after 7 days of incubation as previously reported^8. Following the addition of XTT the soluble intracellular formazan was quantitated colorimetrically at 450 nm 4 h later. The percent of cytotoxicity and the CC50 values were calculated as above. (See Table 4)

MT-2 cells = test: Cytotoxicity in MT-2 cells (XTT); assay type: cell-based; settings: 4 days
Procedure: Cytotoxicity of test compounds in MT-2 cells was measured a by colorimetric method using XTT [(sodium 3′-(1-(phenylamino)-carbonyl)-3,4-tetrazolium-bis(4-methoxy-6-nitro) benzenesulfonic acid hydrate)] (PolySciences) as previously described^7. Briefly, 100 μl of a test compound at graded concentrations was added to an equal volume of cells (1×10^5 cells/ml) in 96 well plates followed by incubation at 37° C. for 4 days, which ran parallel to the neutralization assay in MT-2. Following the addition of XTT the soluble intracellular formazan was quantitated colorimetrically at 450 nm 4 h later. […] (See Table 4)

[5] = test system: lab-adapted and primary HIV-1 isolates; settings: read-out: IC50 (μm); Laboratory strain BaL, subtype B, PBMC, co-receptor R5
Procedure: as §1

[6] = Human immunodeficiency virus 1, TZM-bl, read-out: IC50 (μM) ± S.D., subtype A2/D, NIH # 11906, ENV QG393.60M.ENV.B7
[7] = Human immunodeficiency virus 1, TZM-bl, read-out: IC50 (μM) ± S.D., subtype A, NIH # 11888, ENV QB726.70M.ENV.C4
[8] = Human immunodeficiency virus 1, TZM-bl, read-out: IC50 (μM) ± S.D., subtype A, NIH # 11889, ENV QB726.70M.ENV.B3
[9] = Human immunodeficiency virus 1, TZM-bl, read-out: IC50 (μM) ± S.D., subtype A/E (potential), NIH # 11603, ENV CRF01_AE clone 269
[10] = Human immunodeficiency virus 1, TZM-bl, read-out: IC50 (μM) ± S.D., subtype A/G, NIH # 11605, ENV CRF02_AG clone 278
[11] = Human immunodeficiency virus 1, TZM-bl, read-out: IC50 (μM) ± S.D., subtype B, ENV B41
[12] = Human immunodeficiency virus 1, TZM-bl, read-out: IC50 (μM) ± S.D., subtype B, NIH # 11018, ENV QH0692, clone 42
[13] = Human immunodeficiency virus 1, TZM-bl, read-out: IC50 (μM) ± S.D., subtype B, NIH # 11022, ENV PVO, clone 4
[14] = Human immunodeficiency virus 1, TZM-bl, read-out: IC50 (μM) ± S.D., subtype B, NIH # 11035, ENV pREJO4541 clone 67
[15] = Human immunodeficiency virus 1, TZM-bl, read-out: IC50 (μM) ± S.D., subtype C, NIH # 11307, ENV Du172, clone 17
[16] = Human immunodeficiency virus 1, TZM-bl, read-out: IC50 (μM) ± S.D., subtype C, NIH # 11311, ENV ZM233M.PB6
[17] = Human immunodeficiency virus 1, TZM-bl, read-out: IC50 (μM) ± S.D., subtype C, NIH # 11313, ENV ZM53M.PB12
[18] = Human immunodeficiency virus 1, TZM-bl, read-out: IC50 (μM) ± S.D., subtype D, NIH # 11918, ENV QD435.100M.ENV.E1

SMILES: Cc1nc(C(NC(=O)c2ccc(-c3ccc(Cl)cc3)[nH]2)C2CCCCN2)sc1CO (single isomer, unassigned) [Compound 17]
- IC50 [1]: 10.8 µM
- IC50 [2, 6]: 0.8 ± 0.3 µM
- IC50 ([2]; Human immunodeficiency virus 1, TZM-bl, read-out: IC50 (μM) ± S.D., subtype A, NIH # 11887, ENV Q259env.w6): 1.6 ± 0.1 µM
- IC50 [2, 7]: 1.3 ± 0.3 µM
- IC50 [2, 8]: 1.3 ± 0.4 µM
- IC50 ([2]; Human immunodeficiency virus 1, TZM-bl, read-out: IC50 (μM) ± S.D., subtype A, NIH # 11890, ENV QF495.23M.ENV.A1): 1.3 ± 0.4 µM
- IC50 ([2]; Human immunodeficiency virus 1, TZM-bl, read-out: IC50 (μM) ± S.D., subtype A, NIH # 11891, ENV QF495.23M.ENV.A3): 0.88 ± 0.4 µM
- IC50 ([2]; Human immunodeficiency virus 1, TZM-bl, read-out: IC50 (μM) ± S.D., subtype A, NIH # 11892, ENV QF495.23M.ENV.B2): 0.6 ± 0.4 µM
- IC50 ([2]; Human immunodeficiency virus 1, TZM-bl, read-out: IC50 (μM) ± S.D., subtype A/D, NIH # 11901, ENV QA790.2041.ENV.A4): 1.4 ± 0.05 µM
- IC50 ([2]; Human immunodeficiency virus 1, TZM-bl, read-out: IC50 (μM) ± S.D., subtype A/D, NIH # 11903, ENV QA790.2041.ENV.C8): 1.6 ± 0.2 µM
- IC50 [2, 9]: 1.5 ± 0.3 µM
- IC50 ([2]; Human immunodeficiency virus 1, TZM-bl, read-out: IC50 (μM) ± S.D., subtype A/G, NIH # 11601, ENV CRF02 AG clone 263): 1.4 ± 0.3 µM
- IC50 [2, 10]: 1.3 ± 0.5 µM
- IC50 [2, 11]: 0.68 ± 0.1 µM
- IC50 [2, 12]: 0.52 ± 0.1 µM
- IC50 [2, 13]: 1.9 ± 0.1 µM
- IC50 ([2]; Human immunodeficiency virus 1, TZM-bl, read-out: IC50 (μM) ± S.D., subtype B, NIH # 11033, ENV pWITO4160 clone 33): 1.7 ± 0.1 µM
- IC50 [2, 14]: 1.6 ± 0.3 µM
- IC50 ([2]; Human immunodeficiency virus 1, TZM-bl, read-out: IC50 (μM) ± S.D., subtype B, NIH # 11038, ENV pCAAN5342 clone A2): 0.6 ± 0.07 µM
- IC50 [2, 15]: 1.9 ± 0.5 µM
- IC50 [2, 16]: 1.3 ± 0.1 µM
- IC50 [2, 17]: 1.5 ± 0.2 µM
- IC50 ([2]; Human immunodeficiency virus 1, TZM-bl, read-out: IC50 (μM) ± S.D., subtype D, NIH # 11916, ENV QD435.100M.ENV.B5): 1.7 ± 0.5 µM
- IC50 [2, 18]: 3.7 ± 0.1 µM

SMILES: Cc1nc(C(NC(=O)c2ccc(-c3ccc(Cl)cc3)[nH]2)C2CCCCN2)sc1CO (single isomer, unassigned) [Compound 19]
- IC50 [1]: 7.6 µM
- IC50 [2, 7]: 1.5 ± 0.6 µM
- IC50 [2, 9]: 1.7 ± 0.9 µM
- IC50 [2, 10]: 1.8 ± 0.2 µM
- IC50 ([2]; Human immunodeficiency virus 1, TZM-bl, read-out: IC50 (μM) ± S.D., subtype B, NIH # 11578, ENV pWEAUd15.410.5017): 1.7 ± 0.03 µM
- IC50 ([2]; Human immunodeficiency virus 1, TZM-bl, read-out: IC50 (μM) ± S.D., subtype C, NIH # 11310, ENV ZM214M.PL15): 1.7 ± 0.6 µM
- IC50 ([2]; Human immunodeficiency virus 1, TZM-bl, read-out: IC50 (μM) ± S.D., subtype C, NIH # 11314, ENV ZM109F.PB4): 1.9 ± 0.3 µM
- IC50 ([2]; Human immunodeficiency virus 1, TZM-bl, read-out: IC50 (μM) ± S.D., subtype D, NIH # 11912, ENV QA013.701.ENV.M12): 1.7 ± 0.2 µM
- IC50 ([2]; read-out: IC50 (μM) ± S.D., subtype A2/D, NIH # 11906, ENV QG393.60M.ENV.B7): 1.4 ± 0.5 µM
- IC50 ([2]; read-out: IC50 (μM) ± S.D., subtype A, NIH # 11890, ENV QF495.23M.ENV.A1): 0.86 ± 0.4 µM
- IC50 ([2]; read-out: IC50 (μM) ± S.D., subtype A, NIH # 11891, ENV QF495.23M.ENV.A3): 1.3 ± 0.3 µM
- IC50 ([2]; read-out: IC50 (μM) ± S.D., subtype A, NIH # 11892, ENV QF495.23M.ENV.B2): 1.1 ± 0.2 µM
- IC50 ([2]; read-out: IC50 (μM) ± S.D., subtype A/D, NIH # 11903, ENV QA790.2041.ENV.C8): 1.6 ± 0.2 µM
- IC50 ([2]; read-out: IC50 (μM) ± S.D., subtype B, ENV B41): 1.1 ± 0.4 µM
- IC50 ([2]; read-out: IC50 (μM) ± S.D., subtype B, NIH # 11018, ENV QH0692, clone 42): 0.9 ± 0.3 µM
- IC50 ([2]; read-out: IC50 (μM) ± S.D., subtype B, NIH # 11022, ENV PVO, clone 4): 1.1 ± 0.2 µM
- IC50 ([2]; read-out: IC50 (μM) ± S.D., subtype B, NIH # 11024, ENV AC10.0, clone 29): 0.74 ± 0.25 µM
- IC50 ([2]; read-out: IC50 (μM) ± S.D., subtype B, NIH # 11038, ENV pCAAN5342 clone A2): 0.64 ± 0.01 µM
- IC50 ([2]; subtype A, NIH # 11889, ENV QB726.70M.ENV.B3, read-out: IC50 (μM) ± S.D.): 2.4 ± 0.9 µM

SMILES: Cc1nc(C(CN)NC(=O)c2ccc(-c3ccc(Cl)cc3)[nH]2)sc1CO (single isomer, unassigned) [Compound 39]
- IC50 (HIV-1 Integrase): > 100 µM

SMILES: Cc1nc(C(NC(=O)c2ccc(-c3ccc(Cl)cc3)[nH]2)C2CCCCN2)sc1CO (centres unmarked) [Compound 15]
- IC50 ([3]; read-out: IC50 (μm), Laboratory strain BaL, subtype B, PBMC, co-receptor R5): 3700 ± 400 nM
- IC50 ([3]; read-out: IC50 (μm), Primary isolate 93TH060, subtype E, PBMC, co-receptor R5): 5500 ± 1200 nM
- IC50 ([4]; Human immunodeficiency virus 1, MT2, read-out: IC50 (μm), Laboratory strain RF, subtype B, MT-2, co-receptor R5X4): 7300 ± 600 nM
- CC50 (PBMC): ~36000 nM
- IC50 [2, 6]: 1.7 ± 0.2 µM
- IC50 [2, 8]: 1.5 ± 0.9 µM
- IC50 ([2]; Human immunodeficiency virus 1, TZM-bl, read-out: IC50 (μM) ± S.D., subtype A/G, NIH # 11602, ENV CRF02_AG clone 266): 1.6 ± 0.5 µM
- IC50 [2, 11]: 1.1 ± 0.1 µM
- IC50 [2, 12]: 0.7 ± 0.2 µM
- IC50 [2, 13]: 1.7 ± 0.1 µM
- IC50 ([2]; Human immunodeficiency virus 1, TZM-bl, read-out: IC50 (μM) ± S.D., subtype B, NIH # 11023, ENV TRO, clone 11): 1.3 ± 0.2 µM
- IC50 [2, 14]: 1.8 ± 0.2 µM
- IC50 [2, 15]: 1.5 ± 0.3 µM
- IC50 [2, 16]: 1.4 ± 0.2 µM
- IC50 [2, 17]: 1.3 ± 0.2 µM
- IC50 [2, 18]: 4 ± 0.8 µM
- IC50 ([2]; read-out: IC50 (μM) ± S.D., subtype B, NIH # 11058, ENV SC422661.8): 0.6 ± 0.1 µM
- IC50 ([2]; subtype A, ENV BG505-T332N, read-out: IC50 (μM) ± S.D.): 2.4 ± 1 µM
- IC50 ([2]; subtype D, NIH # 11912, ENV QA013.701.ENV.M12, read-out: IC50 (μM) ± S.D.): 2.4 ± 0.2 µM

SMILES: CC1(C)CC(NC(=O)C(=O)Nc2ccc(Cl)cc2)CC(C)(C)N1 [NBD-556]
- CC50 (MT-2 cells): > 280000 nM
- IC50 ([4]; Laboratory strain SF2, subtype B, MT-2, co-receptor R5X4, read-out: IC50 (μm)): 118000 nM
- IC50 (HIV-1 Integrase): > 200 µM
- CC50 (PBMC): > 280000 nM
- IC50 [5]: 118000 nM

Reference: patent US10576059B2, “Substituted phenylpyrrolecarboxamides with therapeutic activity in HIV” (New York Blood Center, Inc., priority 2014, dated 2020)
